Experimental data taken from paper PMC11007962, “First-in-human study of GFH018, a small molecule inhibitor of transforming growth factor-β receptor I inhibitor, in patients with advanced solid tumors” (BMC Cancer, 2024).
Marks after values point to notes of the source that are not given here.

Tests used:
[1] = tested on: recurrent/metastatic nasopharyngeal carcinoma (R/M NPC); design: method as in doi:10.1200/JCO.2023.41.16_suppl.6026; settings: ongoing phase Ib/II study; cited from earlier work
[2] = design: method as in doi:10.1158/1538-7445.AM2019-3072; settings: preclinical; cited from earlier work
[3] = Plasma pharmacokinetics (LC-MS/MS, noncompartmental analysis); type: in vivo, human
Procedure: For patients enrolled in the escalation part of the study, PK blood samples were collected at C1D1 predose; 0.5 h, 1 h, 2 h, 4 h, 8 h, and 12 h postdose; d 2 (24 h), d 3 (48 h), d 4 (72 h), and d 10 predose; d 17 (for 14 d-on/14 d-off regimen) or d 24 (for 7 d-on/7 d-off regimen) predose; and 0.5 h, 1 h, 2 h, 4 h, 8 h, and 12 h postdose. For patients enrolled in the expansion part, PK samples were collected predose on the last administration day and 0.5 h, 1 h, 2 h, 4 h, 8 h, and 12 h postdose on the last administration day. GFH018 levels in plasma samples were analyzed using a validated liquid chromatography-tandem mass spectrometry method. GFH018 PK parameters were determined using noncompartmental analysis methods and calculated using Phoenix WinNonlin Version 8.3.1 (Certara, Princeton, NJ, USA). GFH018 plasma concentrations and PK parameters were summarized descriptively according to the dose level.

[4] = multiple dose, 5 mg BID 14d-on/14d-off (N=3)
[5] = multiple dose, 10 mg BID 14d-on/14d-off (N=3)
[6] = multiple dose, 20 mg BID 14d-on/14d-off (N=3)
[7] = multiple dose, 30 mg BID 14d-on/14d-off (N=7)
[8] = multiple dose, 40 mg BID 14d-on/14d-off (N=3)
[9] = multiple dose, 50 mg BID 14d-on/14d-off (N=2)
[10] = multiple dose, 65 mg BID 14d-on/14d-off (N=6)
[11] = multiple dose, 85 mg BID 7d-on/7d-off (N=5)
[12] = multiple dose, 85 mg BID 14d-on/14d-off (N=7), escalation and expansion parts combined
[13] = single dose, 5 mg BID 14d-on/14d-off (N = 4)
[14] = single dose, 10 mg BID 14d-on/14d-off (N = 3)
[15] = single dose, 20 mg BID 14d-on/14d-off (N = 4)
[16] = single dose, 30 mg BID 14d-on/14d-off (N = 7)
[17] = single dose, 40 mg BID 14d-on/14d-off (N = 4)
[18] = single dose, 50 mg BID 14d-on/14d-off (N = 4)
[19] = single dose, 65 mg BID 14d-on/14d-off (N = 6)
[20] = single dose, 85 mg BID 7d-on/7d-off (N = 6)
[21] = single dose, 85 mg BID 14d-on/14d-off (N = 9), dose escalation part only

Cc1cccc(-c2nn3c(c2-c2ccc4ncnn4c2/C=C/C(N)=O)CCC3)n1 [GFH018]
efficacy in combination with toripalimab [1]: promising efficacy was shown | effect in combination with anti-PD-1/L1 antibodies [2]: Synergistic effects were observed | PK linearity ([3]; 5 – 85 mg): linear and dose-independent | mean half-life ([3]; 5 – 85 mg (single and multiple dose)): 2.25 to 8.60 h | geometric CV% of exposure (Cmax and AUC) at the steady state ([3]; all cohorts): 7.3–168.9% | AUCtau, geometric mean (geometric CV) [3, 4]: 597 (61.1) h*ng/mL | Cmax, geometric mean (geometric CV) [3, 4]: 165 (15.7) ng/mL | Cmin, geometric mean (geometric CV) [3, 4]: 7.48 (208.2) ng/mL | Racc (accumulation ratio calculated by AUC), geometric mean (geometric CV) [3, 4]: 1.02 (37.9) | Tmax, median (minimum, maximum) [3, 4]: 0.88 (0.42, 0.95) h | t1/2, geometric mean (geometric CV) [3, 4]: 2.67 (31.0) h | AUCtau, geometric mean (geometric CV) [3, 5]: 997 (168.9) h*ng/mL | Cmax, geometric mean (geometric CV) [3, 5]: 291 (124.9) ng/mL | Cmin, geometric mean (geometric CV) [3, 5]: 15.8 (212.1) ng/mL | Racc (accumulation ratio calculated by AUC), geometric mean (geometric CV) [3, 5]: 1.22 (40.3) | Tmax, median (minimum, maximum) [3, 5]: 0.92 (0.90, 1.27) h | t1/2, geometric mean (geometric CV) [3, 5]: 2.25 (26.5) h | AUCtau, geometric mean (geometric CV) [3, 6]: 2056 (76.9) h*ng/mL | Cmax, geometric mean (geometric CV) [3, 6]: 676 (48.0) ng/mL | Cmin, geometric mean (geometric CV) [3, 6]: 25.5 (137.3) ng/mL | Racc (accumulation ratio calculated by AUC), geometric mean (geometric CV) [3, 6]: 1.15 (17.4) | Tmax, median (minimum, maximum) [3, 6]: 0.93 (0.57, 1.08) h | t1/2, geometric mean (geometric CV) [3, 6]: 2.55 (24.6) h | AUCtau, geometric mean (geometric CV) [3, 7]: 5605 (76.6) h*ng/mL | Cmax, geometric mean (geometric CV) [3, 7]: 1167 (87.9) ng/mL | Cmin, geometric mean (geometric CV) [3, 7]: 144 (107.2) ng/mL | Racc (accumulation ratio calculated by AUC), geometric mean (geometric CV) [3, 7]: 1.32 (39.4) | Tmax, median (minimum, maximum) [3, 7]: 1.10 (0.47, 2.58) h | t1/2, geometric mean (geometric CV) [3, 7]: 4.09 (36.8) h | AUCtau, geometric mean (geometric CV) [3, 8]: 5144 (30.3) h*ng/mL | Cmax, geometric mean (geometric CV) [3, 8]: 1599 (33.7) ng/mL | Cmin, geometric mean (geometric CV) [3, 8]: 21.0 (2741.3) ng/mL | Racc (accumulation ratio calculated by AUC), geometric mean (geometric CV) [3, 8]: 1.18 (6.7) | Tmax, median (minimum, maximum) [3, 8]: 0.88 (0.38, 1.00) h | t1/2, geometric mean (geometric CV) [3, 8]: 2.45 (42.8) h | AUCtau, geometric mean (geometric CV) [3, 9]: 4432 (43.6) h*ng/mL | Cmax, geometric mean (geometric CV) [3, 9]: 1253 (7.3) ng/mL | Cmin, geometric mean (geometric CV) [3, 9]: 91.4 (72.9) ng/mL | Racc (accumulation ratio calculated by AUC), geometric mean (geometric CV) [3, 9]: 1.26 (9.2) | Tmax, median (minimum, maximum) [3, 9]: 0.75 (0.50, 1.00) h | t1/2, geometric mean (geometric CV) [3, 9]: 3.53 (3.1) h | AUCtau, geometric mean (geometric CV) [3, 10]: 8189 (29.3) h*ng/mL | Cmax, geometric mean (geometric CV) [3, 10]: 2303 (34.0) ng/mL | Cmin, geometric mean (geometric CV) [3, 10]: 129 (51.8) ng/mL | Racc (accumulation ratio calculated by AUC), geometric mean (geometric CV) [3, 10]: 1.17 (25.3) | Tmax, median (minimum, maximum) [3, 10]: 1.88 (0.50, 2.00) h | t1/2, geometric mean (geometric CV) [3, 10]: 2.59 (9.6) h | AUCtau, geometric mean (geometric CV) [3, 11]: 7732 (46.8) h*ng/mL | Cmax, geometric mean (geometric CV) [3, 11]: 2193 (29.1) ng/mL | Cmin, geometric mean (geometric CV) [3, 11]: 115 (92.5) ng/mL | Racc (accumulation ratio calculated by AUC), geometric mean (geometric CV) [3, 11]: 1.04 (32.5) | Tmax, median (minimum, maximum) [3, 11]: 0.50 (0.50, 1.00) h | t1/2, geometric mean (geometric CV) [3, 11]: 2.92 (18.3) h | AUCtau, geometric mean (geometric CV) [3, 12]: 11353 (27.9) h*ng/mL | Cmax, geometric mean (geometric CV) [3, 12]: 3034 (33.6) ng/mL | Cmin, geometric mean (geometric CV) [3, 12]: 164 (54.3) ng/mL | Tmax, median (minimum, maximum) [3, 12]: 0.50 (0.50, 2.05) h | Racc (accumulation ratio calculated by AUC), geometric mean (geometric CV) ([3]; multiple dose, 85 mg BID 14d-on/14d-off (N=7), n=5 for Racc): 1.18 (24.1)^e | t1/2, geometric mean (geometric CV) ([3]; multiple dose, 85 mg BID 14d-on/14d-off (N=7), n=5 for t1/2): 3.01 (20.0)^d h | geometric mean accumulation ratio (Racc, by AUC) across all dose groups ([3]; multiple doses): 1.02–1.32 | increase of exposure with dose ([3]; multiple doses / overall, 5–85 mg): increased in an approximately proportional manner | accumulation ([3]; multiple doses, any cohort): No obvious accumulation | absorption after oral administration ([3]; oral): rapidly absorbed | increase of plasma exposure (AUC0-t and Cmax) with dose ([3]; single dose, 5–85 mg): increased in an approximately proportional manner | AUC0-12, geometric mean (geometric CV) [3, 13]: 690 (51.3) h*ng/mL | AUC0-inf, geometric mean (geometric CV) [3, 13]: 769 (58.3) h*ng/mL | AUC0-t, geometric mean (geometric CV) [3, 13]: 754 (58.4) h*ng/mL | Cmax, geometric mean (geometric CV) [3, 13]: 215 (50.2) ng/mL | Tmax, median (minimum, maximum) [3, 13]: 0.65 (0.40, 0.97) h | t1/2, geometric mean (geometric CV) [3, 13]: 4.42 (82.9) h | AUC0-12, geometric mean (geometric CV) [3, 14]: 819 (99.0) h*ng/mL | AUC0-inf, geometric mean (geometric CV) [3, 14]: 864 (110.5) h*ng/mL | AUC0-t, geometric mean (geometric CV) [3, 14]: 852 (111.3) h*ng/mL | Cmax, geometric mean (geometric CV) [3, 14]: 250 (72.2) ng/mL | Tmax, median (minimum, maximum) [3, 14]: 0.88 (0.42, 0.93) h | t1/2, geometric mean (geometric CV) [3, 14]: 3.11 (106.3) h | AUC0-12, geometric mean (geometric CV) [3, 15]: 2551 (107.3) h*ng/mL | AUC0-inf, geometric mean (geometric CV) [3, 15]: 2825 (123.9) h*ng/mL | AUC0-t, geometric mean (geometric CV) [3, 15]: 2802 (123.7) h*ng/mL | Cmax, geometric mean (geometric CV) [3, 15]: 743 (65.1) ng/mL | Tmax, median (minimum, maximum) [3, 15]: 0.49 (0.43, 1.03) h | t1/2, geometric mean (geometric CV) [3, 15]: 4.90 (115.1) h | AUC0-12, geometric mean (geometric CV) [3, 16]: 4250 (50.4) h*ng/mL | AUC0-inf, geometric mean (geometric CV) [3, 16]: 4926 (47.8) h*ng/mL | AUC0-t, geometric mean (geometric CV) [3, 16]: 4895 (48.2) h*ng/mL | Cmax, geometric mean (geometric CV) [3, 16]: 972 (82.7) ng/mL | Tmax, median (minimum, maximum) [3, 16]: 0.95 (0.37, 3.80) h | t1/2, geometric mean (geometric CV) [3, 16]: 5.74 (37.6) h | AUC0-12, geometric mean (geometric CV) [3, 17]: 4147 (30.3) h*ng/mL | AUC0-inf, geometric mean (geometric CV) [3, 17]: 4603 (35.2) h*ng/mL | AUC0-t, geometric mean (geometric CV) [3, 17]: 4561 (35.3) h*ng/mL | Cmax, geometric mean (geometric CV) [3, 17]: 1180 (24.7) ng/mL | Tmax, median (minimum, maximum) [3, 17]: 0.69 (0.37, 0.90) h | t1/2, geometric mean (geometric CV) ([3]; single dose, 40 mg BID 14d-on/14d-off (N = 4), n=3 for t1/2): 8.60 (103.8)^b h | AUC0-12, geometric mean (geometric CV) [3, 18]: 5100 (57.9) h*ng/mL | AUC0-inf, geometric mean (geometric CV) [3, 18]: 5906 (49.3) h*ng/mL | AUC0-t, geometric mean (geometric CV) [3, 18]: 5858 (50.2) h*ng/mL | Cmax, geometric mean (geometric CV) [3, 18]: 1209 (85.4) ng/mL | Tmax, median (minimum, maximum) [3, 18]: 0.96 (0.47, 1.92) h | t1/2, geometric mean (geometric CV) [3, 18]: 5.93 (51.2) h | AUC0-12, geometric mean (geometric CV) [3, 19]: 7028 (10.9) h*ng/mL | AUC0-inf, geometric mean (geometric CV) [3, 19]: 7870 (17.9) h*ng/mL | AUC0-t, geometric mean (geometric CV) [3, 19]: 7831 (17.8) h*ng/mL | Cmax, geometric mean (geometric CV) [3, 19]: 2172 (16.3) ng/mL | Tmax, median (minimum, maximum) [3, 19]: 0.68 (0.48, 2.00) h | t1/2, geometric mean (geometric CV) [3, 19]: 5.51 (34.3) h | AUC0-12, geometric mean (geometric CV) [3, 20]: 7455 (27.3) h*ng/mL | AUC0-inf, geometric mean (geometric CV) [3, 20]: 8284 (28.1) h*ng/mL | AUC0-t, geometric mean (geometric CV) [3, 20]: 8240 (27.9) h*ng/mL | Cmax, geometric mean (geometric CV) [3, 20]: 2555 (29.9) ng/mL | Tmax, median (minimum, maximum) [3, 20]: 0.50 (0.50, 1.10) h | t1/2, geometric mean (geometric CV) [3, 20]: 7.45 (61.8) h | AUC0-12, geometric mean (geometric CV) [3, 21]: 10074 (42.0) h*ng/mL | AUC0-inf, geometric mean (geometric CV) [3, 21]: 11164 (45.4) h*ng/mL | AUC0-t, geometric mean (geometric CV) [3, 21]: 11119 (45.5) h*ng/mL | Cmax, geometric mean (geometric CV) [3, 21]: 3225 (35.5) ng/mL | Tmax, median (minimum, maximum) [3, 21]: 0.58 (0.45, 1.12) h | t1/2, geometric mean (geometric CV) [3, 21]: 6.37 (41.6) h
